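1) Cells in 96-well plates. 2) Compound, 48 h, 5 concentrations. 3) Linear interpolation between surrounding doses. 4) Unreached endpoint = highest concentration. GI50 = concentration required for 50% inhibition of growth. At the TGI there is no net growth.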
What was measured:
Test in all cases: inhibition of tumour cell growth, NCI panel, 48 h
OVCAR-5 ovarian = test system: OVCAR-5 ovarian
SF-539 CNS = test system: SF-539 CNS
EKVX NSCLC = test system: EKVX NSCLC
SK-OV-3 ovarian = test system: SK-OV-3 ovarian
HOP-92 NSCLC = test system: HOP-92 NSCLC
SK-MEL-2 melanoma = test system: SK-MEL-2 melanoma
SF-295 CNS = test system: SF-295 CNS
HCC-2998 colon = test system: HCC-2998 colon
SK-MEL-5 melanoma = test system: SK-MEL-5 melanoma
RXF 393 renal = test system: RXF 393 renal
U251 CNS = test system: U251 CNS
NCI-H522 lung = test system: NCI-H522 lung
A549 NSCLC = test system: A549 NSCLC
NCI/ADR-RES ovarian = test system: NCI/ADR-RES ovarian
MDA-MB-231 breast = test system: MDA-MB-231 breast
DU-145 prostate = test system: DU-145 prostate
MOLT-4 leukemia = test system: MOLT-4 leukemia
COLO 205 colon = test system: COLO 205 colon
SN12C renal = test system: SN12C renal
SF-268 CNS = test system: SF-268 CNS
HCT-116 colon = test system: HCT-116 colon
BT-549 breast = test system: BT-549 breast
NCI-H460 lung = test system: NCI-H460 lung
A498 renal = test system: A498 renal
UACC-62 melanoma = test system: UACC-62 melanoma
IGROV1 ovarian = test system: IGROV1 ovarian
HOP-62 NSCLC = test system: HOP-62 NSCLC
TK-10 renal = test system: TK-10 renal
HT29 colon = test system: HT29 colon
MALME-3M melanoma = test system: MALME-3M melanoma
MCF7 breast = test system: MCF7 breast
SR leukemia = test system: SR leukemia
SW-620 colon = test system: SW-620 colon
HCT-15 colon = test system: HCT-15 colon
K-562 leukemia = test system: K-562 leukemia
ACHN renal = test system: ACHN renal
RPMI-8226 leukemia = test system: RPMI-8226 leukemia
OVCAR-3 ovarian = test system: OVCAR-3 ovarian
SK-MEL-28 melanoma = test system: SK-MEL-28 melanoma
CAKI-1 renal = test system: CAKI-1 renal
M14 melanoma = test system: M14 melanoma
HL-60(TB) leukemia = test system: HL-60(TB) leukemia
OVCAR-8 ovarian = test system: OVCAR-8 ovarian
NCI-H226 lung = test system: NCI-H226 lung
NCI-H23 lung = test system: NCI-H23 lung
PC-3 prostate = test system: PC-3 prostate
UO-31 renal = test system: UO-31 renal
OVCAR-4 ovarian = test system: OVCAR-4 ovarian
786-0 renal = test system: 786-0 renal
KM12 colon = test system: KM12 colon
CCRF-CEM leukemia = test system: CCRF-CEM leukemia
UACC-257 melanoma = test system: UACC-257 melanoma
T-47D breast = test system: T-47D breast
SNB-19 CNS = test system: SNB-19 CNS
HS 578T breast = test system: HS 578T breast
MDA-MB-435 = test system: MDA-MB-435
SNB-75 CNS = test system: SNB-75 CNS

Structure (SMILES): COc1cc(/C=C/C(=O)c2cc(OC)c(OC)c(OC)c2)ccc1OCc1ccc(F)cc1
- GI50 (OVCAR-5 ovarian): 3.9 µM
- TGI (OVCAR-5 ovarian): > 100 µM
- GI50 (SF-539 CNS): 2.12 µM
- TGI (SF-539 CNS): 5.13 µM
- GI50 (EKVX NSCLC): 18.4 µM
- TGI (EKVX NSCLC): > 100 µM
- GI50 (SK-OV-3 ovarian): 3.61 µM
- TGI (SK-OV-3 ovarian): 54.6 µM
- GI50 (HOP-92 NSCLC): 2.15 µM
- TGI (HOP-92 NSCLC): 8.99 µM
- GI50 (SK-MEL-2 melanoma): 8.57 µM
- TGI (SK-MEL-2 melanoma): 64.4 µM
- GI50 (SF-295 CNS): 3.65 µM
- TGI (SF-295 CNS): > 100 µM
- GI50 (HCC-2998 colon): 2.94 µM
- TGI (HCC-2998 colon): 8.17 µM
- GI50 (SK-MEL-5 melanoma): 3.41 µM
- TGI (SK-MEL-5 melanoma): 26.3 µM
- GI50 (RXF 393 renal): 3.4 µM
- TGI (RXF 393 renal): 49.8 µM
- GI50 (U251 CNS): 3.74 µM
- TGI (U251 CNS): > 100 µM
- GI50 (NCI-H522 lung): 2.31 µM
- TGI (NCI-H522 lung): 15.5 µM
- GI50 (A549 NSCLC): 3.11 µM
- TGI (A549 NSCLC): > 100 µM
- GI50 (NCI/ADR-RES ovarian): 4.2 µM
- TGI (NCI/ADR-RES ovarian): > 100 µM
- GI50 (MDA-MB-231 breast): 2.96 µM
- TGI (MDA-MB-231 breast): 24.6 µM
- GI50 (DU-145 prostate): 3.72 µM
- TGI (DU-145 prostate): > 100 µM
- GI50 (MOLT-4 leukemia): 3.14 µM
- TGI (MOLT-4 leukemia): > 100 µM
- GI50 (COLO 205 colon): 5.27 µM
- TGI (COLO 205 colon): > 100 µM
- GI50 (SN12C renal): 2.73 µM
- TGI (SN12C renal): 15.4 µM
- GI50 (SF-268 CNS): 4.8 µM
- TGI (SF-268 CNS): > 100 µM
- GI50 (HCT-116 colon): 2.85 µM
- TGI (HCT-116 colon): > 100 µM
- GI50 (BT-549 breast): 3.36 µM
- TGI (BT-549 breast): 15.5 µM
- GI50 (NCI-H460 lung): 4.56 µM
- TGI (NCI-H460 lung): > 100 µM
- GI50 (A498 renal): 48 µM
- TGI (A498 renal): > 100 µM
- GI50 (UACC-62 melanoma): 3.15 µM
- TGI (UACC-62 melanoma): 52.3 µM
- GI50 (IGROV1 ovarian): 3.38 µM
- TGI (IGROV1 ovarian): > 100 µM
- GI50 (HOP-62 NSCLC): 3.64 µM
- TGI (HOP-62 NSCLC): 37.6 µM
- GI50 (TK-10 renal): 16.6 µM
- TGI (TK-10 renal): > 100 µM
- GI50 (HT29 colon): 3.43 µM
- TGI (HT29 colon): > 100 µM
- GI50 (MALME-3M melanoma): 6 µM
- TGI (MALME-3M melanoma): > 100 µM
- GI50 (MCF7 breast): 2.45 µM
- TGI (MCF7 breast): > 100 µM
- GI50 (SR leukemia): 1.73 µM
- TGI (SR leukemia): > 100 µM
- GI50 (SW-620 colon): 4.31 µM
- TGI (SW-620 colon): > 100 µM
- GI50 (HCT-15 colon): 2.66 µM
- TGI (HCT-15 colon): > 100 µM
- GI50 (K-562 leukemia): 2.94 µM
- TGI (K-562 leukemia): > 100 µM
- GI50 (ACHN renal): 4.92 µM
- TGI (ACHN renal): > 100 µM
- GI50 (RPMI-8226 leukemia): 1.68 µM
- TGI (RPMI-8226 leukemia): > 100 µM
- GI50 (OVCAR-3 ovarian): 3.84 µM
- TGI (OVCAR-3 ovarian): > 100 µM
- GI50 (SK-MEL-28 melanoma): 6.52 µM
- TGI (SK-MEL-28 melanoma): > 100 µM
- GI50 (CAKI-1 renal): 4.35 µM
- TGI (CAKI-1 renal): > 100 µM
- GI50 (M14 melanoma): 5.74 µM
- TGI (M14 melanoma): > 100 µM
- GI50 (HL-60(TB) leukemia): 2.73 µM
- TGI (HL-60(TB) leukemia): > 100 µM
- GI50 (OVCAR-8 ovarian): 2.88 µM
- TGI (OVCAR-8 ovarian): 16.6 µM
- GI50 (NCI-H226 lung): 3.48 µM
- TGI (NCI-H226 lung): > 100 µM
- GI50 (NCI-H23 lung): 5.29 µM
- TGI (NCI-H23 lung): > 100 µM
- GI50 (PC-3 prostate): 3.67 µM
- TGI (PC-3 prostate): > 100 µM
- GI50 (UO-31 renal): 3.88 µM
- TGI (UO-31 renal): > 100 µM
- GI50 (OVCAR-4 ovarian): 3.62 µM
- TGI (OVCAR-4 ovarian): > 100 µM
- GI50 (786-0 renal): 7.22 µM
- TGI (786-0 renal): > 100 µM
- GI50 (KM12 colon): 4.95 µM
- TGI (KM12 colon): > 100 µM
- GI50 (CCRF-CEM leukemia): 3.13 µM
- TGI (CCRF-CEM leukemia): > 100 µM
- GI50 (UACC-257 melanoma): 3.82 µM
- TGI (UACC-257 melanoma): > 100 µM
- GI50 (T-47D breast): 3.22 µM
- TGI (T-47D breast): > 100 µM
- GI50 (SNB-19 CNS): 4 µM
- TGI (SNB-19 CNS): > 100 µM
- GI50 (HS 578T breast): 6.03 µM
- TGI (HS 578T breast): 84.2 µM
- GI50 (MDA-MB-435): 3.6 µM
- TGI (MDA-MB-435): > 100 µM
- GI50 (SNB-75 CNS): 2.06 µM
- TGI (SNB-75 CNS): 7.48 µM

From PubChem BioAssay (NCI)
